pEC50, pIC50, pKd: −log10 of the molar value.
Assays:
[1] = Cytotoxicity against human Huh7.5 cells after 72 hrs by MTT assay; assay type: cell-based
[2] = Selectivity index, ratio of CC50 for human Huh7.5 cells to EC50 for antiviral activity against HCV genotype 2a JFH/JC1 infected in human Huh7.5 cells; assay type: toxicity, cell-based; conditions: read-out: Ratio CC50/EC50
Hepatitis C virus [3] = experiment: Antiviral activity against HCV genotype 2a JFH/JC1 infected in human Huh7.5 cells assessed as inhibition of viral RNA replication after 72 hrs by qRT-PCR analysis; assay type: functional, organism-based, Hepacivirus hominis; conditions: subtype 2a JFH/JC1, Huh7.5, 72 h
Hepatitis C virus [4] = experiment: Antiviral activity against HCV pseudoparticles infected in human Huh7.5 cells infected with HCV pseudoparticles expressed in 293T cells with plasmid encoding HCV E1, E2, envelope and Vpr deficient HIV vector carrying luciferase reporter gene inserted into Nef position assessed as inhibition of pseudoparticle entry after 72 hrs by luciferase reporter gene assay; assay type: functional, organism-based, Hepacivirus hominis; conditions: for inhibition: Hepacivirus hominis
CD81 antigen = biological target: T1, CD81 antigen (Homo sapiens, UniProt P60033); experiment: Binding affinity to CD81 (unknown origin) by surface plasmon resonance assay
T1 sequence (P60033 whole entry): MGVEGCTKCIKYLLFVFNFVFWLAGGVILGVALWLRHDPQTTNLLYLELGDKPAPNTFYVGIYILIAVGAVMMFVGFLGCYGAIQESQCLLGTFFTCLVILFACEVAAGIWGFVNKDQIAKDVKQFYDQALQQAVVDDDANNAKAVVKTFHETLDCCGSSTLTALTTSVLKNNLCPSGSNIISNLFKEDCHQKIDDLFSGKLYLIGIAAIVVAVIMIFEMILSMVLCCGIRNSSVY

[5] = biological target: T2, CD81 antigen (Homo sapiens) (UniProt P60033); experiment: Binding affinity to CD81 (unknown origin) assessed as association rate constant by surface plasmon resonance assay
T2 sequence (whole entry): T1 sequence (P60033 whole entry)

[6] = biological target: T2, CD81 antigen (Homo sapiens); experiment: Binding affinity to CD81 (unknown origin) assessed as disruption of interaction between CD81 the HCV envelope protein E2 at 5 uM by surface plasmon resonance assay relative to untreated control

| Compound | CC50 at 72 h [1] [µM] | selectivity ratio [2] | pEC50 (Hepatitis C virus [3]) | pIC50 (Hepatitis C virus [4]) | inhibition (Hepatitis C virus [4]) | pKd (CD81 antigen) | Ka [5] [M⁻¹ s⁻¹] | Ratio [6] |
| --- | --- | --- | --- | --- | --- | --- | --- | --- |
| CC(C)OC(=O)[C@H](C)NP(=O)(OC[C@H]1O[C@@H](n2ccc(=O)[nH]c2=O)[C@](C)(F)[C@@H]1O)Oc1ccccc1 (stereo not given in full) | > 200 | > 3120 | 7.22 | – | – | – | – | – |
| C/C(=C\CC[C@]1(C)[C@@H](C(=O)O)C[C@H]1[C@](C)(O)C(=O)O)C(=O)O | 74.3 | 4 | 4.69 | 4.37 | Dose-dependent effect | 7.18 | 3.81e+07 | – |
| CC(=O)[C@@H]1C[C@H](C(=O)O)[C@@]1(C)CC/C=C(\C)C(=O)O | 75.3 | 3 | 4.61 | 4.45 | Dose-dependent effect | 7.42 | 5.33e+06 | 33 |
| CCC[C@H](NC(=O)[C@@H]1[C@H]2CCC[C@H]2CN1C(=O)[C@@H](NC(=O)[C@@H](NC(=O)c1cnccn1)C1CCCCC1)C(C)(C)C)C(=O)C(=O)NC1CC1 [TELAPREVIR] | 26.5 | 491 | – | – | – | – | – | – |
